“And” between values parts separate entries of the source, which are not always exact repeats. Identical values can stand only once.
Columns and labels:
Drosophila OR49b = target: T1, Drosophila OR49b (Drosophila melanogaster, UniProt Q9V6H2); assay: cell-based
T1 construct: expressed in transfected cells
T1 sequence (Q9V6H2 1-375): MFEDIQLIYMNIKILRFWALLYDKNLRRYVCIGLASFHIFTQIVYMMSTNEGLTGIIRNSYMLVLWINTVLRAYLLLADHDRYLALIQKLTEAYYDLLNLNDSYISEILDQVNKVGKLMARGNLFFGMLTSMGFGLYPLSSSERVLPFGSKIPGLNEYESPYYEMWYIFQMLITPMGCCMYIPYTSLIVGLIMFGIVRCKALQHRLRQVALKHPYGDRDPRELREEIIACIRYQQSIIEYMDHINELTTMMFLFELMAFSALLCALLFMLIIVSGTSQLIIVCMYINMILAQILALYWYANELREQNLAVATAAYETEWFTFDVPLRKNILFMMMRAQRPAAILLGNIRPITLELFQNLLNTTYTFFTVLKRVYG
T1 sequence (Q9VNB5 1-486 partner): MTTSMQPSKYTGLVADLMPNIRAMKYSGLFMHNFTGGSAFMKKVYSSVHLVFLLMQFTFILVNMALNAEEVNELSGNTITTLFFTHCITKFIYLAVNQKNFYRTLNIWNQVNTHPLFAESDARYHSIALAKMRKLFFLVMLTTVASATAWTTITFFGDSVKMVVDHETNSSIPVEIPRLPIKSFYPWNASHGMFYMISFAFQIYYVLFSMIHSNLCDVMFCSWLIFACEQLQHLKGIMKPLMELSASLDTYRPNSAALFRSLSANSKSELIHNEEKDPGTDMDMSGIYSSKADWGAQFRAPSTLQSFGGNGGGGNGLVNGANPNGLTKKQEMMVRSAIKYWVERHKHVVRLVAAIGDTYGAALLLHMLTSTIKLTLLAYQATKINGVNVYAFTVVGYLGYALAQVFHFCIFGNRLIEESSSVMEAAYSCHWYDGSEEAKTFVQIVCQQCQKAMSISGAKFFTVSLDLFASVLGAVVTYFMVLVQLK
Protocol: These VUAA1 normalized ∆F values were used to compare the different receptors and ligands.
The concentration-dependent effect of the reference ligands on their cognate cell lines was examined in more detail. Twelve different ligand concentrations were measured on each cell line in an overall 0.01 μM to 100 μM concentration range with 5 repetitions with three technical replicates each time.
Twelve thousand to 18,000 cells were plated into each well of a black wall, transparent bottom 384-well microplate (Greiner) 48 h or 72 h before the measurements and were simultaneously treated with 1 μg/mL doxycycline. […] The plate has 24 columns, thus we could record responses in up to eight different cell lines in each plate. On the day of the experiment, the growth medium was replaced with 20 µL assay buffer/well (140 mM NaCl, 5 mM KCl, 2 mM CaCl2, 1 mM MgCl2, 5 mM HEPES-Na, 20 mM glucose, pH 7.3, 340 mOsm). […] Baseline fluorescence (F0) was recorded for 5 s, after which 7 µL VOC buffer (140 mM NaCl, 5 mM KCl, 2 mM CaCl2, 1 mM MgCl2, 5 mM HEPES-Na, 31 mM glucose, 0.1% DMSO, pH 7.3, 340 mOsm) was injected into each well in one row and the fluorescence response was recorded for an additional 30 s, at a rate of one read/sec. VOC solutions (VOC buffer with 4× concentration of the final measured VOC concentration, 9 µL/well was injected) were measured on the same wells in a second round with the same protocol. Each individual concentration of a specific VOC sample was recorded in three wells for the same cell line on the same microplate. The raw data were exported in xls file format, F0 and FMAX values, and the fluorescence intensity changes (∆F) were calculated in Excel (Microsoft) (Supplementary file Data summary.xlsx) using the following equation: ΔF=FMAX-F0/F0 (see also Fig. 1C). On each plate, we recorded the response of each cell line to 50 µM VUAA1. The average of these ∆F values of each cell line were used to calculate the VUAA1-normalized values for the rest of the plate, by dividing VOC response ∆F values by the average VUAA1 response ∆F value of the corresponding OR cell line. Each VOC-OR combination was measured three times as technical replicates. […] The average of these replicates were used as one ∆F and VUAA1-normalized ∆F in the following analysis.
In the next rows we tested the reference VOCs (or other VOCs known to activate the corresponding cell lines), in order to test if all cell lines are responsive. The remaining rows were used to test VOCs with unknown effect.
The recorded FMAX, F0, ∆F, VUAA1-normalized ∆F values, as well as the OR name, the name of the tested sample, and the final concentration for each well were copied into supplementary file Data summary.xlsx, that was used to summarize all the plates recorded. Here, the averages of the measurements were calculated for each receptor-VOC-concentration combination.

OR49b [1] = test system: OR49b; set-up: method as in PMID 23329732; conditions: OR49b in Xenopus oocytes; read-out: calculated EC50; cited from earlier work
OR49b [2] = conditions: 80 μM; OR49b transiently in HEK293T cells; cited from earlier work
[3] = OR49b, average of 5 biological replicates
[4] = OR49b, fit of each biological replicate
[5] = OR49b, fit of the averaged curve

## Cc1ccccc1O [2-methylphenol]
Drosophila OR49b; EC50 (fitted parameter), OR49b, fit of each biological replicate
  EC50: 3.35 µM and 16.1 µM and 14.8 µM and 21 µM and 31.6 µM
Drosophila OR49b; EC50, AVERAGE, OR49b, arithmetic average of 5 replicate EC50
  EC50: 17.4 µM
Drosophila OR49b; EC50, FITTED AVERAGE CURVE, OR49b, fit of the averaged curve
  EC50: 24.4 µM
Drosophila OR49b; EC50, OR49b cell line, fitted Hill equation, Hill coefficient constrained to 1, maximal response max 1
  EC50: 13.9 µM
Drosophila OR49b; LOG EC50 (fitted parameter), OR49b, fit of each biological replicate, log of EC50, unit inferred
  EC50: 3.35 µM and 16.1 µM and 14.8 µM and 21 µM and 31.6 µM
Drosophila OR49b; LOG EC50, AVERAGE, OR49b, average of 5 biological replicates
  EC50: 14 µM
Drosophila OR49b; OR49b, VOC concentration 0.075
  response, AVERAGE: 0
  response, biological replicates: 0
Drosophila OR49b; OR49b, VOC concentration 0.15
  response, AVERAGE: 0
  response, biological replicates: 0
Drosophila OR49b; OR49b, VOC concentration 0.3
  response, AVERAGE: 0.0628
  response, biological replicates: 0 (2×) and 0.1244 and 0.09727 and 0.09231
Drosophila OR49b; OR49b, VOC concentration 0.6
  response, AVERAGE: 0.04614
  response, biological replicates: 0 (3×) and 0.1263 and 0.1043
Drosophila OR49b; OR49b, VOC concentration 1.25
  response, AVERAGE: 0.07731
  response, biological replicates: 0 (2×) and 0.1346 and 0.1269 and 0.1251
Drosophila OR49b; OR49b, VOC concentration 2.5
  response, AVERAGE: 0.06463
  response, biological replicates: 0.1405 and 0 (2×) and 0.06363 and 0.119
Drosophila OR49b; OR49b, VOC concentration 5
  response, AVERAGE: 0.1447
  response, biological replicates: 0.2459 and 0.1808 and 0.1356 and 0.1611 and 0
Drosophila OR49b; OR49b, VOC concentration 10
  response, AVERAGE: 0.2704
  response, biological replicates: 0.4119 and 0.3158 and 0.288 and 0.1952 and 0.1409
Drosophila OR49b; OR49b, VOC concentration 20
  response, AVERAGE: 0.5849
  response, biological replicates: 0.5662 and 0.6184 and 0.7088 and 0.601 and 0.43
Drosophila OR49b; OR49b, VOC concentration 40
  response, AVERAGE: 0.6048
  response, biological replicates: 0.5892 and 0.7837 and 0.6143 and 0.432
Drosophila OR49b; OR49b, VOC concentration 60
  response, AVERAGE: 0.7233
  response, biological replicates: 0.8924 and 0.8145 and 0.74 and 0.4464
Drosophila OR49b; OR49b, VOC concentration 80
  response, AVERAGE: 0.613
  response, biological replicates: 0 and 0.9414 and 0.8681 and 0.8023 and 0.453
Drosophila OR49b; OR49b, VOC concentration 100
  response, AVERAGE: 0.818
  response, biological replicates: 0.8641 and 0.8887 and 0.8515 and 0.6679
Drosophila OR49b; [3]
  AVERAGE MAX: 0.8353
  n, AVERAGE: 1
Drosophila OR49b; [4]
  MAX (fitted parameter): 0.4157 and 1 (3×) and 0.7607
  n (fitted parameter): 1
Drosophila OR49b; [5]
  MAX, fitted average curve: 1
  n, FITTED AVERAGE CURVE: 0.855
OR49b [1]
  EC50: 239 ± 76 µM
OR49b [2]
  response: 38.5%

Reference: publication PMC10709440, “High-throughput ligand profile characterization in novel cell lines expressing seven heterologous insect olfactory receptors for the detection of volatile plant biomarkers” (Scientific Reports, 2023)
